Assay results reported in patent publication US5322944A, “Process for the synthesis of enantiomers of 3-aminochroman compounds” (Adir et Compagnie, priority 1991, dated 1994).

Assays:
5HT1 A receptors = molecular target: T1, 5HT1 A receptors (Homo sapiens, UniProt P08908); assay: conventional binding techniques, 5HT1 A receptors; conditions: for Ki: affinity expressed as K 0.5 (Ki) for the 5HT1 A receptors, conventional binding techniques, called K 0.5 for the (+) isomer, Ki for the (-) isomer; for selectivity (5HT1 A versus D2 receptors): ratio of D2 to 5HT1 A affinity constants
T1 sequence (P08908 1-422): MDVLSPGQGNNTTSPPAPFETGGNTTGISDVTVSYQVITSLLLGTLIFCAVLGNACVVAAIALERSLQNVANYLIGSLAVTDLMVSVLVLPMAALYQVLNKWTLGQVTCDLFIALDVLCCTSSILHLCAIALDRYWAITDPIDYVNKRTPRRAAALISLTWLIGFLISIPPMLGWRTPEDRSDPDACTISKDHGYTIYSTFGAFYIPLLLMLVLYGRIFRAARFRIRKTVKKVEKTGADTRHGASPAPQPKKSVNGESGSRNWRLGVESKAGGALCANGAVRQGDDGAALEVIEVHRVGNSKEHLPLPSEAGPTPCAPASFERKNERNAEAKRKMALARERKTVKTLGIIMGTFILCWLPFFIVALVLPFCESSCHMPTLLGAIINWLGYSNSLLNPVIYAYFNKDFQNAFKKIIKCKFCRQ
Text: (§1) If conventional binding techniques are used, the affinity of the (+) isomer of the compound of formula (II), expressed as K 0.5, is 2×10^-10for the 5HT1 A receptors and 2×10^-8 for the D2 receptors, which is equivalent to a selectivity of the order of 100.

D2 receptors = D2 receptors (Homo sapiens, UniProt P14416); assay: conventional binding techniques, D2 receptors; conditions: called K 0.5 for the (+) isomer, read-out: affinity expressed as K 0.5 (Ki) for the D2 receptors
Sequence of D2 receptors (P14416 whole entry): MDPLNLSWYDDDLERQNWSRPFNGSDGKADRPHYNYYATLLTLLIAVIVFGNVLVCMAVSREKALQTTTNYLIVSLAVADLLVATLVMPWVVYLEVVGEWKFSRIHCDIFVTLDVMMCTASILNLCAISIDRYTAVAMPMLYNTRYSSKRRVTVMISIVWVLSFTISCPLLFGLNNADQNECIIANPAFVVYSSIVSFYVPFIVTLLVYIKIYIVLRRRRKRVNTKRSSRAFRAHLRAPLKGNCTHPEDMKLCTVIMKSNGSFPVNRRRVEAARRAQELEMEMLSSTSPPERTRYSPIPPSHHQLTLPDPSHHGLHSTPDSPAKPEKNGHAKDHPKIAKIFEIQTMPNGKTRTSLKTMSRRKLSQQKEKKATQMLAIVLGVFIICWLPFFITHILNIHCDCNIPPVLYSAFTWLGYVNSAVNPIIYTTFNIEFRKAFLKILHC
Text: as §1

SMILES	affinity for the 5HT1 A receptors relative to that of the (-) isomer (5HT1 A receptors; (+) isomer compared with (-) isomer)	specificity relative to the (-) isomer (5HT1 A receptors; (+) isomer compared with (-) isomer, 5HT1 A versus D2) [times]	Ki (5HT1 A receptors) [nM]	selectivity (5HT1 A versus D2 receptors) (5HT1 A receptors)	Ki (D2 receptors) [nM]
CCCN(CCCCN1C(=O)CC2(CCCC2)CC1=O)C1COc2cccc(OC)c2C1 (single isomer, unassigned; (+)) [(+) isomer of the compound of formula (II)]	about 10 times	20	0.2	~100	20
CCCN(CCCCN1C(=O)CC2(CCCC2)CC1=O)C1COc2cccc(OC)c2C1 (single isomer, unassigned; (-)) [(-) isomer]	–	–	2	~5	10
